Laboratory results from US20210186947A1, “TOMM6-INTERACTING EXTRACTS AND COMPOUNDS FOR USE IN THE TREATMENT AND PROPHYLAXIS OF NERVOUS SYSTEM DISEASES, ATHEROSCLEROSIS, HEPATITIS B INFECTION AND HUMAN PAPILLOMA VIRUS (HPV) INFECTION” (ETH ZURICH, priority 2018, published 2021).
Residue numbers refer to the chain shown, from its start.

Experiments:
TOMM6 [1] = molecular target: T1, TOMM6 (Homo sapiens, UniProt Q96B49); assay: Screening for TOMM6-inducing compounds in HEK cells, TOMM6 immunoblot; format: cell-based; set-up: endogenous in cells; host or cells: HEK cells; conditions: final concentration 20 microM, 60 h
T1 sequence (Q96B49 1-74): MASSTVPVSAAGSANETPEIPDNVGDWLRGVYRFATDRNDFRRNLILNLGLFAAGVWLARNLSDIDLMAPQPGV
Description: For immunoblot detection of (hippocampal or HEK cell) proteins, e.g. Tomm6/TOMM6 and Atp6v1a/ATP6V1A, (hippocampal) tissue was pulverized under liquid nitrogen, and HEK cell pellets were directly subjected to protein extraction. Proteins were extracted for 30 min at 4° C. with solubilization buffer (1% sodium deoxycholate, 0.1% SDS, 0.1% NP40, 5 mM EDTA, 50 mM Tris, pH 8.0) supplemented with protease/phosphatase inhibitors (Cat. No. P8349, and/or PPC1010, Sigma-Aldrich, St. Louis, Mo., USA). Particulate material was removed by centrifugation at 50 000×g for 20 min at 4° C. Solubilized proteins were concentrated and delipidated by precipitation with ice-cold acetone/methanol (12:2, final concentration 83%) for 90 min at 4° C. The pellet was dissolved in SDS-sample buffer supplemented with 2% SDS, 0.1 M DTT (or 5% mercaptoethanol), and 6 M urea for 90 min at room temperature. Proteins were stored at a concentration of 0.5 mg-1 mg/ml at −70° C. for further use. Immunoblot detection of proteins was performed with affinity-purified antibodies or F(ab)2 fragments of the respective antibodies after separation of proteins by urea-containing SDS-PAGE (7.5%-10%) under reducing conditions and electrophoretic protein transfer to PVDF membranes in a tank transfer cell (Mini Trans-Blot cell, Bio-Rad GmbH, Munchen, Germany). Bound antibodies were visualized with F(ab)2 fragments of enzyme-coupled secondary antibodies (Dianova GmbH, Hamburg, Germany) pre-absorbed to mouse serum proteins, or by enzyme-coupled protein A (EMD Millipore, Merck KGaA, Darmstadt, Germany) as applicable, and followed by enhanced chemiluminescent detection (ECL Plus, and/or ECL Prime, Amersham, GE Healthcare Life Sciences, Glattbrugg, Switzerland).
TOMM6-inducing compounds were searched for and a screening system was established in HEK cells. HEK cells were cultured in the absence and presence of a test compound at a final concentration of 20 microM. Cells were harvested, proteins were extracted and TOMM6 protein levels were determined in immunoblot with TOMM6-specific antibodies. […] The following TOMM6-interacting (inducing) compounds were identified: Compound-3: N-[(3-chlorophenyl)methyl]-2-(3-piperidyl)oxazole-4-carboxamide; Compound-4: N-[(3,4-dichlorophenyl)methyl]-2-(3-piperidyl)oxazole-4-carboxamide; Compound-5: 2-[(1S)-1-amino-2-methyl-butyl]-N-[(3,4-dichlorophenyl)methyl]oxazole-4-carboxamide; Compound-6: 2-[(1S)-1-amino-2-methyl-propyl]-N-[(3,4-dichlorophenyl)methyl]oxazole-4-carboxamide; Compound-7: 6-(aminomethyl)-4-(4-chlorophenyl)-2-methyl-pyridine-3-carboxamide; Compound-8: 4-(2,4-dichlorophenyl)-6-[(1,3-dioxoisoindolin-2-yl)methyl]-2-methyl-pyridine-3-carboxamide; Compound-9: 4-(4-chlorophenyl)-6-[(1,3-dioxoisoindolin-2-yl)methyl]-2-methyl-pyridine-3-carboxamide; and Compound-10: 4-(4-chlorophenyl)-6-(hydroxymethyl)-2-methyl-pyridine-3-carboxamide).

[2] = system: hippocampal neuronal cell bodies (NeuN); assay: Hippocampal neuronal loss in Tg2576 mice subjected to CUMS, binding assay with [125I]-labeled anti-NeuN antibody; format: in vivo; conditions: 15 months-old Tg2576 mice, 3 months of CUMS, treated during CUMS; compounds 10 mg/kg/d
Tomm6 [3] = molecular target: T2, Tomm6 (Mus musculus, UniProt Q9CQN3); assay: Immunoblot detection of hippocampal Tomm6 protein in treated Tg2576 mice; format: in vivo; conditions: Tg2576 AD mice subjected to the CUMS protocol, treated during CUMS (10 mg/kg/d)
T2 construct: hippocampi were isolated from 5-10 aged Tg2576 mice, pulverized under liquid nitrogen and solubilized; from tissue; host or cells: hippocampus of Tg2576 mice
T2 sequence (Q9CQN3 1-74): T1 sequence (Q96B49 1-74) with T5G, P7T, N15S, T17A, P18S, I20V, Y32F

[4] = system: hyperphosphorylated PHF-Tau; assay: Hippocampal hyperphosphorylated PHF-Tau in Tg2576 mice subjected to CUMS, binding assay with [125I]-labeled AT8 antibody; format: in vivo; conditions: 15 months-old Tg2576 mice, 3 months of CUMS, treated during CUMS; compounds 10 mg/kg/d

| TOMM6 protein level in HEK cells (TOMM6 [1]) | Structure (SMILES) | hippocampal neuronal loss [2] | hippocampal Tomm6 protein content (Tomm6 [3]) | hippocampal content of hyperphosphorylated PHF-Tau [4] |
| --- | --- | --- | --- | --- |
| inducers of TOMM6 | CCC(C)[C@H](N)c1nc(C(=O)NCc2ccc(Cl)c(Cl)c2)co1 (stereo partly drawn) [Compound-5, 2-[(1S)-1-amino-2-methyl-butyl]-N-[(3,4-dichlorophenyl)methyl]oxazole-4-carboxamide] |  |  |  |
| inducers of TOMM6 | Cc1nc(CN2C(=O)c3ccccc3C2=O)cc(-c2ccc(Cl)cc2Cl)c1C(N)=O [Compound-8, 4-(2,4-dichlorophenyl)-6-[(1,3-dioxoisoindolin-2-yl)methyl]-2-methyl-pyridine-3-carboxamide] |  |  |  |
| inducers of TOMM6 | Cc1nc(CN2C(=O)c3ccccc3C2=O)cc(-c2ccc(Cl)cc2)c1C(N)=O [Compound-9, 4-(4-chlorophenyl)-6-[(1,3-dioxoisoindolin-2-yl)methyl]-2-methyl-pyridine-3-carboxamide] |  |  |  |
| inducers of TOMM6 | O=C(NCc1cccc(Cl)c1)c1coc(C2CCCNC2)n1 (stereo not drawn) [Compound-3, N-[(3-chlorophenyl)methyl]-2-(3-piperidyl)oxazole-4-carboxamide] |  |  |  |
| inducers of TOMM6 | CC(C)[C@H](N)c1nc(C(=O)NCc2ccc(Cl)c(Cl)c2)co1 [Compound-6, 2-[(1S)-1-amino-2-methyl-propyl]-N-[(3,4-dichlorophenyl)methyl]oxazole-4-carboxamide] |  |  |  |

| Structure (SMILES) | TOMM6 protein level in HEK cells (TOMM6 [1]) | hippocampal neuronal loss [2] | hippocampal Tomm6 protein content (Tomm6 [3]) | hippocampal content of hyperphosphorylated PHF-Tau [4] |
| --- | --- | --- | --- | --- |
| O=C(NCc1ccc(Cl)c(Cl)c1)c1coc(C2CCCNC2)n1 (stereo not drawn) [Compound-4, N-[(3,4-dichlorophenyl)methyl]-2-(3-piperidyl)oxazole-4-carboxamide] | inducers of TOMM6 | retarded overt neuronal loss | strong increase in hippocampal Tomm6 protein content | decreased hippocampal PHF tau hyperphosphorylation |
